Experimental findings from US10682351B2, “Methods of administering elagolix” (AbbVie Inc., priority 2015, dated 2020) are described below.

Data set [1] is described as follows: Safety in elagolix/ketoconazole interaction study (adverse events, vital signs, ECGs, laboratory tests). It is filed as in vivo, human. The method, then: (§1) Each subject received elagolix 150 mg single dose alone and on the 4th day of a six-day regimen of ketoconazole 400 mg q.d.
Adverse event rates across treatment periods were 0% (elagolix alone), 82% (ketoconazole alone), and 36% (co-administration). The most common adverse event was nausea, which was noted as probably related to ketoconazole alone. […] Mean elagolix plasma concentration—time profiles for elagolix administered with ketoconazole, versus elagolix administered alone, are shown in FIG. 2.

Data set [2] is described as follows: Pharmacokinetic interaction between elagolix and ketoconazole (open-label, two-period, sequential study). It is filed as in vivo, human. The conditions noted are these: elagolix 150 mg single dose on 4th day of six-day ketoconazole 400 mg q.d. vs elagolix alone; healthy premenopausal females. The method, then:
In a second embodiment of this invention, it was discovered that ketoconazole increased elagolix exposure levels.
as §1
Analysis of variance was performed to compare the pharmacokinetic parameters of elagolix with and without ketoconazole.

The conditions of data set [3]: in vivo. The protocol: This was an open-label, two-period, sequential study conducted in 12 females chosen according to the protocol selection criteria. Each subject received elagolix 150 mg single dose with and without rifampin 600 mg q.d. for 10 days. Intensive blood samples for elagolix assay were collected up to 36 hours after elagolix dosing in both periods. Safety data, including adverse event monitoring, vital signs, ECGs, and laboratory tests were collected during the study.
Values for elagolix maximum concentration (Cmax) and area-under-the-curve (AUC) were estimated using noncompartmental methods. Analysis of variance was performed to compare elagolix Cmax and AUC with and without rifampin.

Like-named read-outs stand apart in the source and are kept apart here.

For the compound `CC(=O)N1CCN(c2ccc(OCC3COC(Cn4ccnc4)(c4ccc(Cl)cc4Cl)O3)cc2)CC1` (centres unmarked) [ketoconazole, Ketoconazole, reference compound], the Adverse event rate in data set [1] (drug alone treatment period, elagolix 150 mg single dose or ketoconazole 400 mg q.d., healthy premenopausal females) is listed as 82%.
With `COc1cccc(-c2c(C)n(Cc3c(F)cccc3C(F)(F)F)c(=O)n(C[C@H](NCCCC(=O)[O-])c3ccccc3)c2=O)c1F.[Na+]` [Elagolix, 4-((R)-2-[5-(2-fluoro-3-methoxy-phenyl)-3-(2-fluoro-6-trifluoromethyl-benzyl)-4-methyl-2,6-dioxo-3,6-dihydro-2H-pyrimidin-1-yl]-1-phenyl-ethylamino)-butyric acid sodium salt], the “Elagolix AUC increase” value in data set [2] was 2.2 fold. In data set [2], the “Elagolix Cmax increase” value is recorded as 1.8 fold. Also, the “Vital signs, ECG or laboratory measurements” value in data set [1] (in vivo) was “No clinically significant vital signs, ECG or laboratory measurements were observed”; in data set [3], “No clinically significant vital signs, ECG or laboratory measurements were observed”.
